Test results taken from patent publication US20220313701A1, “MODULATORS OF TREX1” (Constellation Pharmaceuticals, Inc., priority 2019, published 2022).

Tests used:
[1] = target: T1, full length human TREX1 (Homo sapiens, UniProt Q9NSU2); test: TREX1 Biochemical Assay (fluorescence assay, degradation of dsDNA substrate); conditions: 150 pM TREX1, 60 nM dsDNA substrate, 25 minutes at room temperature
T1 construct: N-terminally His-Tev tagged full length human TREX1; His-Tev (His tag with TEV site) (N); made in house; host or cells: E. coli
T1 sequence (Q9NSU2 1-314): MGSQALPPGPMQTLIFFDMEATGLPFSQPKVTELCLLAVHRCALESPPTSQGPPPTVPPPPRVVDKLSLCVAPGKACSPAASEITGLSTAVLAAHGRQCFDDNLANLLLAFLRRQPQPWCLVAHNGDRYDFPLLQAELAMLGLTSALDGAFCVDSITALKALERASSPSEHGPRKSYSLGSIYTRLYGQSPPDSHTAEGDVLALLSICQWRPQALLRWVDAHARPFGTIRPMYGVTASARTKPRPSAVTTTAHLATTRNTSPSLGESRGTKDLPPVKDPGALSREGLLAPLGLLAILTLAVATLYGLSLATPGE
Description: Degradation of the dsDNA liberates free fluorophore to produce a fluorescent signal. Specifically, 7.5 μL of N-terminally His-Tev tagged full length human TREX1 (expressed in E. coli and purified in house) in reaction buffer (50 mM Tris (pH 7.4), 150 mM NaCl, 2 mM DTT, 0.1 mg/mL BSA, 0.01% (v/v) Tween-20 and either 100 mM MgCl2) was added to a 384-well Black ProxiPlate Plus (Perkin Elmer) which already contained compound (150 nL) at varying concentrations as a 10 point dose-response in DMSO. To this was added 7.5 μL of dsDNA substrate (Strand A: 5′ TEX615/GCT AGG CAG 3′; Strand B: 5′ CTG CCT AGC/IAbRQSp (Integrated DNA Technologies)) in reaction buffer. Final concentrations were 150 pM TREX1, 60 nM dsDNA substrate in reaction buffer with 1.0% DMSO (v/v). After 25 minutes at room temperature, reactions were quenched by the addition of 5 μL of stop buffer (same as reaction buffer plus 200 mM EDTA). Final concentrations in the quenched reaction were 112.5 pM TREX1, 45 nM DNA and 50 mM EDTA in a volume of 20 μL. After a 5-minute incubation at room temperature, plates were read in a laser sourced Envision (Perkin-Elmer), measuring fluorescence at 615 nm following excitation w/570 nm light. IC50 values were calculated by comparing the measured fluorescence at 615 nm ratio relative to control wells pre-quenched w/stop buffer (100% inhibition) and no inhibitor (0% inhibition) controls as using non-linear least square four parameter fits and either Genedata or GraphPad Prism (GraphPad Software, Inc.).

[2] = target: T2, human TREX2 (residues M44-A279) (Homo sapiens, UniProt Q9BQ50); test: TREX2 Biochemical Assay (fluorescence assay, degradation of dsDNA substrate); conditions: 2.5 nM TREX2, 60 nM dsDNA substrate, 25 minutes at room temperature
T2 construct: human TREX2 (residues M44-A279, expressed in E. coli); His-Tev (His tag with TEV site) (N); made in house; host or cells: E. coli
T2 sequence (Q9BQ50 44-279 isoform Q9BQ50-1): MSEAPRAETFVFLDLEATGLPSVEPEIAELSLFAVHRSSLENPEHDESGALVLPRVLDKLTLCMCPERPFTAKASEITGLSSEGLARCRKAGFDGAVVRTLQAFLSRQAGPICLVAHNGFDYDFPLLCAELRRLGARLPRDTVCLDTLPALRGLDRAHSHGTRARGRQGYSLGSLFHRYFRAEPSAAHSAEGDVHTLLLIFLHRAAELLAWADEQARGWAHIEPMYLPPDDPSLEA
Description: Degradation of the dsDNA liberates free fluorophore to produce a fluorescent signal. Specifically, 7.5 μL of N-terminally His-Tev tagged human TREX2 (residues M44-A279, expressed in E. coli and purified in house) in reaction buffer (50 mM Tris (pH 7.4), 150 mM NaCl, 2 mM DTT, 0.1 mg/mL BSA, 0.01% (v/v) Tween-20 and 100 mM MgCl2) was added to a 384-well Black ProxiPlate Plus (Perkin Elmer) which already contained compound (150 nL) at varying concentrations as a 10 point dose-response in DMSO. To this was added 7.5 μL of dsDNA substrate (Strand A: 5′ TEX615/GCT AGG CAG 3′; Strand B: 5′ CTG CCT AGC/IAbRQSp (IDT)) in reaction buffer. Final concentrations were 2.5 nM TREX2, 60 nM dsDNA substrate in reaction buffer with 1.0% DMSO (v/v). After 25 minutes at room temperature, reactions were quenched by the addition of 5 μL of stop buffer (same as reaction buffer plus 200 mM EDTA). Final concentrations in the quenched reaction mixture were […] TREX2, 45 nM DNA and 50 mM EDTA in a volume of 20 μL. After a 5-minute incubation at room temperature, plates were read in a laser sourced Envision (Perkin-Elmer), measuring fluorescence at 615 nm following excitation w/570 nm light. IC50 values were calculated by comparing the measured fluorescence at 615 nm ratio relative to control wells pre-quenched w/stop buffer (100% inhibition) and no inhibitor (0% inhibition) controls as using non-linear least square four parameter fits and either Genedata or GraphPad Prism (GraphPad Software, Inc.).

Compound	IC50 [1] [µM]	IC50 [2] [µM]
COc1ccc(C2(O)CCN(c3cncc(-n4cccn4)n3)CC2)cc1 [Example 2, 1-(6-(1H-pyrazol-1-yl)pyrazin-2-yl)-4-(4-methoxyphenyl)piperidin-4-ol]	> 10	> 100
OC1(c2ccccc2F)CCN(c2cncc(-n3cccn3)n2)CC1 [Example 3, 1-(6-(1H-pyrazol-1-yl)pyrazin-2-yl)-4-(2-fluorophenyl)piperidin-4-ol]	> 10	> 100
Cn1cc(-c2cncc(N3CCC(O)(Cc4ccccc4)CC3)n2)cn1 [Example 5, 4-benzyl-1-(6-(1-methyl-1H-pyrazol-4-yl)pyrazin-2-yl)piperidin-4-ol]	> 10	> 100
Cn1cc(-c2cncc(N3CCC(O)(CCc4ccccc4)CC3)n2)cn1 [Example 6, 1-(6-(1-methyl-1H-pyrazol-4-yl)pyrazin-2-yl)-4-phenethylpiperidin-4-ol]	> 10	> 100
OC1(c2ccc(F)cc2)CCN(c2cncc(-c3cnn(Cc4ccccc4)c3)n2)CC1 [Example 14, 1-(6-(1-benzyl-1H-pyrazol-4-yl)pyrazin-2-yl)-4-(4-fluorophenyl)piperidin-4-ol]	1 to 10	> 100
OC1(c2ccc(F)cc2)CCN(c2cncc(-c3cccnc3)n2)CC1 [Example 16, 4-(4-fluorophenyl)-1-(6-(pyridin-3-yl)pyrazin-2-yl)piperidin-4-ol]	1 to 10	> 100
OC1(c2ccc(F)cc2)CCN(c2cncc(-c3cncnc3)n2)CC1 [Example 18, 4-(4-fluorophenyl)-1-(6-(pyrimidin-5-yl)pyrazin-2-yl)piperidin-4-ol]	1 to 10	> 100
Cc1noc(C)c1-c1cncc(N2CCC(O)(c3ccc(F)cc3)CC2)n1 [Example 19, 1-(6-(3,5-dimethylisoxazol-4-yl)pyrazin-2-yl)-4-(4-fluorophenyl)piperidin-4-ol]	1 to 10	> 100
CN(C)C(=O)c1cccc(-c2cncc(N3CCC(O)(c4ccc(F)cc4)CC3)n2)c1 [Example 20, 3-(6-(4-(4-fluorophenyl)-4-hydroxypiperidin-1-yl)pyrazin-2-yl)-N,N-dimethylbenzamide]	1 to 10	> 100
CNC(=O)c1ccc(-c2cncc(N3CCC(O)(c4ccc(F)cc4)CC3)n2)cc1 [Example 21, 4-(6-(4-(4-fluorophenyl)-4-hydroxypiperidin-1-yl)pyrazin-2-yl)-N-methylbenzamide]	1 to 10	> 100
CS(=O)(=O)c1ccc(-c2cncc(N3CCC(O)(c4ccc(F)cc4)CC3)n2)cc1 [Example 22, 4-(4-fluorophenyl)-1-(6-(4-(methylsulfonyl)phenyl)pyrazin-2-yl)piperidin-4-ol]	1 to 10	> 100
N#Cc1ccccc1-c1cncc(N2CCC(O)(c3ccc(F)cc3)CC2)n1 [Example 23, 2-(6-(4-(4-fluorophenyl)-4-hydroxypiperidin-1-yl)pyrazin-2-yl)benzonitrile]	1 to 10	> 100

Continued, values first:

IC50 [1] [µM]	IC50 [2] [µM]	Compound
1 to 10	> 100	Cc1nn(C)cc1-c1cncc(N2CC[C@@](O)(c3ccc(F)c(F)c3)C[C@@H]2C)n1 (racemic) [Example 102, (rac)-cis-4-(3,4-difluorophenyl)-1-(6-(1,3-dimethyl-1H-pyrazol-4-yl)pyrazin-2-yl)-2-methylpiperidin-4-ol]
1 to 10	> 100	Cc1nn(C)cc1-c1cncc(N2CC[C@@](O)(c3ccc(F)c(F)c3)C[C@H]2C)n1 (racemic) [Example 103, (rac)-trans-4-(3,4-difluorophenyl)-1-(6-(1,3-dimethyl-1H-pyrazol-4-yl)pyrazin-2-yl)-2-methylpiperidin-4-ol]
1 to 10	10 to 100	OC1(c2ccc(Cl)cc2)CCN(c2cncc(-n3cccn3)n2)CC1 [Example 1, 1-(6-(1H-pyrazol-1-yl)pyrazin-2-yl)-4-(4-chlorophenyl)piperidin-4-ol]
0.1 to 1	10 to 100	Cn1cc(-c2cncc(N3CCC(O)(c4ccc(F)c(F)c4)CC3)n2)cn1 [Example 4, 4-(3,4-difluorophenyl)-1-(6-(1-methyl-1H-pyrazol-4-yl)pyrazin-2-yl)piperidin-4-ol]
1 to 10	> 100	Cn1cc(-c2cncc(N3CCC(O)(c4ccc(F)cc4)CC3)n2)cn1 [Example 7, 4-(4-fluorophenyl)-1-(6-(1-methyl-1H-pyrazol-4-yl)pyrazin-2-yl)piperidin-4-ol]
0.1 to 1	> 100	Cc1nn(C)cc1-c1cncc(N2CCC(O)(c3ccc(F)cc3)CC2)n1 [Example 8, 1-(6-(1,3-dimethyl-1H-pyrazol-4-yl)pyrazin-2-yl)-4-(4-fluorophenyl)piperidin-4-ol]
< 0.1	10 to 100	Cc1nn(C)cc1-c1cncc(N2CCC(O)(c3ccc(F)c(F)c3)CC2)n1 [Example 9, 4-(3,4-difluorophenyl)-1-(6-(1,3-dimethyl-1H-pyrazol-4-yl)pyrazin-2-yl)piperidin-4-ol]
< 0.1	10 to 100	Cn1cc(-c2cncc(N3CCC(O)(c4ccc(F)c(F)c4)CC3)n2)c(C(F)(F)F)n1 [Example 10, 4-(3,4-difluorophenyl)-1-(6-(1-methyl-3-(trifluoromethyl)-1H-pyrazol-4-yl)pyrazin-2-yl)piperidin-4-ol]
0.1 to 1	10 to 100	Cn1cc(-c2cncc(N3CCC(O)(c4ccc(F)c(F)c4)CC3)n2)c(C2CC2)n1 [Example 11, 1-(6-(3-cyclopropyl-1-methyl-1H-pyrazol-4-yl)pyrazin-2-yl)-4-(3,4-difluorophenyl)piperidin-4-ol]
1 to 10	> 100	Cc1c(-c2cncc(N3CCC(O)(c4ccc(F)cc4)CC3)n2)cnn1C [Example 12, 1-(6-(1,5-dimethyl-1H-pyrazol-4-yl)pyrazin-2-yl)-4-(4-fluorophenyl)piperidin-4-ol]
1 to 10	> 100	OC1(c2ccc(F)cc2)CCN(c2cncc(-c3cnn(C(F)F)c3)n2)CC1 [Example 13, 1-(6-(1-(difluoromethyl)-1H-pyrazol-4-yl)pyrazin-2-yl)-4-(4-fluorophenyl)piperidin-4-ol]
0.1 to 1	> 100	Cc1ccc(-c2cncc(N3CCC(O)(c4ccc(F)cc4)CC3)n2)cn1 [Example 15, 4-(4-fluorophenyl)-1-(6-(6-methylpyridin-3-yl)pyrazin-2-yl)piperidin-4-ol]
0.1 to 1	10 to 100	Cc1ccc(-c2cncc(N3CCC(O)(c4ccc(F)c(F)c4)CC3)n2)c(C)n1 [Example 17, 4-(3,4-difluorophenyl)-1-(6-(2,6-dimethylpyridin-3-yl)pyrazin-2-yl)piperidin-4-ol]
